Reference: publication PMC5297880 (Clinical Pharmacology in Drug Development, 2016)
Where two headings read alike, the source gives them in different places. Each block holds one molecule with its values, some of them ahead of it.

Key:
[1] = Safety: treatment-emergent adverse events in healthy subjects; assay type: in vivo, human
MATE1 = conditions: read-out: IC50 MATE1 inhibition; [14C]metformin substrate; ref data on file; cited from earlier work
CYP2C8 [2] = conditions: human liver microsomes; paclitaxel hydroxylation; P < .05; ref data on file; cited from earlier work
CYP2B6 [3] = conditions: human liver microsomes; S-mephenytoin demethylation; P < .01; ref data on file; cited from earlier work
UGT2B7 = conditions: read-out: IC50 for morphine 3-glucuronidation [UGT2B7]; human liver microsomes; cited from earlier work
UGT1A1 = conditions: read-out: IC50 for 17β-estradiol 3-glucuronidation [UGT1A1]; human liver microsomes; cited from earlier work
OCT2 = conditions: [14C]metformin substrate, ref data on file, cited from earlier work
CYP3A4 [4] = conditions: cultured human hepatocytes; cited from earlier work
CYP2B6 [5] = conditions: cultured human hepatocytes; cited from earlier work
UGT1A9 = conditions: read-out: IC50 for propofol glucuronidation [UGT1A9]; human liver microsomes; cited from earlier work
CYP3A5 = conditions: CYP3A5-expressing human liver microsomes; cited from earlier work
CYP2B6 [6] = conditions: CYP2B6-expressing human liver microsomes; cited from earlier work
[7] = assay type: in vivo, human; conditions: for AUCτ geometric least-squares mean ratio (90%CI) / Cmax geometric least-squares mean ratio (90%CI): lopinavir/ritonavir plus isavuconazole to isavuconazole alone; for AUC: AUCτ, day 13 (24 hours), mean (SD)
CYP3A7 = conditions: CYP3A7-expressing human liver microsomes; cited from earlier work
P-gp = conditions: read-out: IC50 P-gp inhibition; [3H]digoxin substrate; ref data on file; cited from earlier work
CYP3A4 [8] = conditions: CYP3A4-expressing human liver microsomes; cited from earlier work
CYP2C8 [9] = conditions: CYP2C8-expressing human liver microsomes; cited from earlier work
[10] = assay type: in vivo, human; conditions: for decrease in mean AUCτ in presence vs absence of isavuconazole / decrease in mean Cmax in presence vs absence of isavuconazole: Part 2, isavuconazole 200 mg; for AUC / Cmax: both, human, plasma, oral; for AUC: AUCτ, day 13 (12 hours), mean (SD); for Cmax: day 13, mean (SD)
[11] = Part 2, lopinavir/ritonavir plus isavuconazole to lopinavir/ritonavir alone
[12] = Part 2, lopinavir/ritonavir 400/100 mg + isavuconazole 200 mg, n = 16
[13] = Part 2, lopinavir/ritonavir 400/100 mg alone, n = 18

Compound: C[C@@H](c1nc(-c2ccc(C#N)cc2)cs1)[C@](O)(Cn1cncn1)c1cc(F)ccc1F [Isavuconazole, isavuconazole]
subjects who experienced TEAEs ([1]; Part 1 (isavuconazole 100 mg), all mild): 2 (33.3%) n (%) | TEAEs overall, subjects ([1]; Part 2): 11 (61.1%) n (%) | subjects with TEAEs in system organ class gastrointestinal disorders ([1]; Part 2, text): 16.7% | IC50 (MATE1): 6.31 µM | correlation (r) of isavuconazole metabolism with CYP2C8 activity (CYP2C8 [2]): 0.57 | correlation (r) of isavuconazole metabolism with CYP2B6 activity (CYP2B6 [3]): 0.65 | IC50 (UGT2B7): 44 µM | IC50 (UGT1A1): 9 µM | IC50 (OCT2; read-out: IC50 OCT2 inhibition): 1.97 µM | Ki (OCT2; read-out: Ki OCT2 inhibition): 0.69 µM | increase of CYP3A4 activity (CYP3A4 [4]): 3.4 fold | increase of CYP3A4 mRNA (CYP3A4 [4]): 6.4 fold | increase of CYP2B6 activity (CYP2B6 [5]): 13.4 fold | increase of CYP2B6 mRNA (CYP2B6 [5]): 11.4 fold | IC50 (UGT1A9): 19 µM | % remaining (CYP3A5): 68.4 % remaining | % remaining (CYP2B6 [6]): > 98 % remaining | AUCτ geometric least-squares mean ratio (90%CI) ([7]; Part 1 (isavuconazole 100 mg)): 213 (174, 262) % | Cmax geometric least-squares mean ratio (90%CI) ([7]; Part 1 (isavuconazole 100 mg)): 196 (155, 248) % | increase in mean AUCτ in presence vs absence of lopinavir/ritonavir ([7]; Part 1, isavuconazole 100 mg): 113% | increase in mean Cmax in presence vs absence of lopinavir/ritonavir ([7]; Part 1, isavuconazole 100 mg): 96% | AUCτ geometric least-squares mean ratio (90%CI) ([7]; Part 2 (isavuconazole 200 mg)): 196 (164, 235) % | Cmax geometric least-squares mean ratio (90%CI) ([7]; Part 2 (isavuconazole 200 mg)): 174 (146, 208) % | increase in mean AUCτ in presence vs absence of lopinavir/ritonavir ([7]; Part 2, isavuconazole 200 mg): 96% | increase in mean Cmax in presence vs absence of lopinavir/ritonavir ([7]; Part 2, isavuconazole 200 mg): 74% | Tmax ([7]; Part 2, isavuconazole 200 mg + lopinavir/ritonavir, day 13, median (range)): 3.0 (1.0‐4.0) hours | Tmax ([7]; both, human, plasma, oral, 100 mg): 3 h | Tmax ([7]; both, human, plasma, oral, 200 mg): 3 h | AUC ([7]; both, human, plasma, oral, Part 1, isavuconazole 100 mg + lopinavir/ritonavir 400/100 mg BID, n = 6): 116000 ng·h/mL | AUC ([7]; both, human, plasma, oral, Part 2, isavuconazole 200 mg + lopinavir/ritonavir 400/100 mg BID, n = 16): 222000 ng·h/mL | % remaining (CYP3A7): > 98 % remaining | IC50 (P-gp): 25.7 µM | % remaining (CYP3A4 [8]): 33.8 % remaining | % remaining (CYP2C8 [9]): > 98 % remaining

decrease in mean AUCτ in presence vs absence of isavuconazole [10]: 27% | decrease in mean Cmax in presence vs absence of isavuconazole [10]: 23% | AUCτ geometric least-squares mean ratio (90%CI) [10, 11]: 73 (56, 96) % | Cmax geometric least-squares mean ratio (90%CI) [10, 11]: 77 (62, 95) % | AUC [10, 12]: 73300 ng·h/mL | AUC [10, 13]: 91000 ng·h/mL
Compound: Cc1cccc(C)c1OCC(=O)N[C@@H](Cc1ccccc1)[C@@H](O)C[C@H](Cc1ccccc1)NC(=O)[C@H](C(C)C)N1CCCNC1=O [Lopinavir, lopinavir]

decrease in mean AUCτ in presence vs absence of isavuconazole [10]: 31% | decrease in mean Cmax in presence vs absence of isavuconazole [10]: 33% | AUC [10, 12]: 4000 ng·h/mL | AUC [10, 13]: 5500 ng·h/mL | Cmax ([10]; Part 2, lopinavir/ritonavir + isavuconazole): 800 ng/mL | Cmax ([10]; Part 2, lopinavir/ritonavir alone): 1200 ng/mL
Compound: CC(C)c1nc(CN(C)C(=O)N[C@H](C(=O)N[C@@H](Cc2ccccc2)C[C@H](O)[C@H](Cc2ccccc2)NC(=O)OCc2cncs2)C(C)C)cs1 [Ritonavir, ritonavir]
